Where two headings read alike, the source gives them in different places.
Tests used:
human MLKL (full length) = human MLKL (full length) (Homo sapiens (Human), UniProt Q8NB16); experiment: KINOMEscan binding assay, human MLKL (full length); conditions: hMLKL, Table 25; read-out: MLKL (KD)
Outline: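 KINOMEscan competition binding using kinase-tagged T7 phage or HEK-293-produced DNA-tagged protein captured on ligand beads, with eluted protein quantified by qPCR. Compounds were run as an 11-point 3-fold series, top 30,000 nM, in 1% DMSO. Kd was fitted with the Hill equation, slope fixed at −1.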

[1] = test system: U937 human histiocytic leukemia cell line; experiment: Cellular assay: inhibition of TSQ induced necroptosis, CellTitre-Glo viability; conditions: Homo sapiens, U-937, U937 cells, 48 hours, TSQ cocktail, read-out: Inhibition of TSQ-induced necroptosis (IC50 cell-based assay)
Protocol: Cellular Assay: Screening Compounds for Inhibition of TSQ Induced Necroptosis, 384 Well Plate Format.
(§1) • Cell Line ID: U937 human histiocytic leukemia cell line. • Cell Concentration (cells/well): Final cell density is 20000 cells per well. • Cell growth medium: HT-RPMI medium+7.4% Fetal Bovine Serum (FBS). Cells are cultured in Corning 150 cm^2 tissue culture flasks with vented caps at 37° C./5% CO2. • Incubation: Plates were incubated at 37° C./5% CO2 in a humidified incubator for 48 hours following addition of compounds and death stimuli (TSQ cocktail). • Compound concentration: 36 μM starting concentration, 1:3 dilution, 10 point • DMSO final concentration (% v/v): 0.3%. Compounds in TSQ Cocktail (T: TNF; S: Smac Mimetic; Q: Q-VD-OPh) and their Final Concentrations: • hTNF-Fc (100 ng/ml)—produced by standard procedures as shown in Bossen et al., J. Biol. Chem., 2006, 281(20), 13964-13971. • Compound A (500 nM)—Smac mimetic, Tetralogic and SYNthesis med chem • Q-VD-OPh (10 μM)—MP Biomedicals
(§2) The cellular assay was carried out according to the following steps: • 1. Each well was prepared by sequential addition of: • a. DMSO (control; columns 1-2 and 23-24) or compound in DMSO—addition was performed using acoustic transfer of nL volumes of stock compound to give final test concentrations of 36, 12, 4, 1.3, 0.44, 0.148, 0.049, 0.016, 0.005 and 0.002 μM. All wells were backfilled with DMSO to a final total volume in the well of 100 nL. • b. Following compound/DMSO addition in step (a), 40 μL of cell suspension (5×10^5 cells/mL) was added to provide a final cell concentration of 20,000 cells per well, and • c. Following cell addition in step (b), 10 μL of 5×TSQ cocktail (except to positive controls; columns 1 and 23) was added to each well. • 2. After 48 hours, plate was removed from the 37° C. incubator and equilibrated to room temperature for 45 minutes. • 3.15 μL of room temperature CellTitre-Glo2™ (Promega™) was added to each well. • 4. Shook plates for 2 minutes (˜600 rpm) and incubated at room temperature for 15 minutes to allow signal to stabilise. • 5. Read luminescence readout on a plate reader.
Percent viability was calculated for each compound according to equation (2):
(§3) • Assay involving the TSQ cocktail (T: TNF; S: Smac mimetic; Q: Q-VD-OPh): TSQ treatment ensures that cells specifically undergo necroptotic cell death. TNF activates the TNF receptor, Smac mimetic directs the signal away from proinflammatory signaling and toward the RIPK1/RIPK3-mediated cell death pathways, and Q-VD-OPh ensures that the apoptotic response is blocked leaving only the programmed necrosis response. The compounds' activity (solution in DMSO) tested in this TSQ-induced assay was evaluated by determining the number of viable cells in culture by measuring the amount of ATP present as measured by CelltiterGlo. • Counter screen: In parallel, all compounds were tested for their ability to affect cell viability. The same U937 cells were treated with compound in DMSO without the TSQ cocktail. This counter screen enabled evaluation of off-target effects. In this case, cell viability was measured by CelltiterGlo.

U937 cells = experiment: Counter screen: cell viability without the TSQ cocktail (off-target effect); parameters: species or system human; conditions: Homo sapiens
Protocol: as §1, §2, §3

endogenous MLKL in U937 = endogenous MLKL in U937 (Homo sapiens (Human), UniProt Q8NB16); experiment: Degradation assay: endogenous MLKL in U937 (western blot); conditions: U937, 24 h incubation, read-out: Degradation of endogenous MLKL in U937 (DC50 cell-based assay)
endogenous MLKL in U937, sequence (Q8NB16 whole entry): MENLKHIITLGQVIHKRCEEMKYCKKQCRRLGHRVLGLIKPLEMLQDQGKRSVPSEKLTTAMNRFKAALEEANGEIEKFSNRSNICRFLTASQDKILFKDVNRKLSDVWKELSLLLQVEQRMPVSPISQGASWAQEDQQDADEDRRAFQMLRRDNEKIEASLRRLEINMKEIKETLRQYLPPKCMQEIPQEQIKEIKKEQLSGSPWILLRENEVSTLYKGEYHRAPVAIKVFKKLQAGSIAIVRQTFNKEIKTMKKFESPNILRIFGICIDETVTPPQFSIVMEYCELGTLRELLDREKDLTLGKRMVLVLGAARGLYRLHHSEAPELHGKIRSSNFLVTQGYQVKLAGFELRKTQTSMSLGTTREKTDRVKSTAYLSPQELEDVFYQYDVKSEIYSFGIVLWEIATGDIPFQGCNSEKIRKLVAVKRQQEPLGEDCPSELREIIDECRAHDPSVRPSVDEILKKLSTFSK
Outline: (§4)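 Western blot band intensity of MLKL, adjusted to GAPDH loading and normalized to DMSO-only wells, gave percent degradation. Compound exposure lasted 24 h at final concentrations of 10–0.016 μM in 1:5 steps, in mouse dermal fibroblasts or human U937 cells.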

[2] = test system: Immortalised Mouse Dermal Fibroblasts (MDFs); experiment: Cellular assay: inhibition of TSI induced necroptosis, CellTitre-Glo viability; conditions: Mus musculus, Fibroblast, MDF, 3 hours TSI cocktail, read-out: Inhibition of TSI-induced necroptosis (IC50 cell-based assay) in MDF
Outline: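 Necroptosis induced for 3 h with TSI: rhTNF 100 ng/ml, Smac mimetic 500 nM, caspase inhibitor IDN-6556 10 μM. Mouse dermal fibroblasts had received compound (36 μM top, ten three-fold steps) 30 min beforehand. ATP-based viability scaled between untreated and TSI-only wells; IC50 taken as 4-parameter curve inflection.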

endogenous MLKL in MDF = endogenous MLKL in MDF (Mus musculus (Mouse), UniProt Q9D2Y4); experiment: Degradation assay: endogenous MLKL in MDF (western blot); conditions: MDF cells, 24 h incubation with compound, MLKL adjusted for loading with GAPDH, normalized to DMSO only control, read-out: Degradation of endogenous MLKL in MDF (DC50 cell-based assay)
endogenous MLKL in MDF, sequence (Q9D2Y4 whole entry): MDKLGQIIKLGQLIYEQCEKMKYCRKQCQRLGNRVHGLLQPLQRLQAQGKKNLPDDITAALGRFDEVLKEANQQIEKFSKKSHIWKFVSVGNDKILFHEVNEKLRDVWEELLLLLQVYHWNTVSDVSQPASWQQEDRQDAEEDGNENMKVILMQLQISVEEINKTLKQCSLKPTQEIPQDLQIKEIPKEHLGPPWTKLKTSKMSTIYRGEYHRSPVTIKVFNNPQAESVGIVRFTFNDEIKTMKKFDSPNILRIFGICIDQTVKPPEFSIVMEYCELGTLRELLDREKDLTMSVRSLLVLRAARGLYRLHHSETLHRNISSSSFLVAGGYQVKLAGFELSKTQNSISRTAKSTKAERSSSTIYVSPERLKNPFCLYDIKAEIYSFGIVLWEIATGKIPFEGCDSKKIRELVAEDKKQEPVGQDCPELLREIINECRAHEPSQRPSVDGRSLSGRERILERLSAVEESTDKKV
Outline: as §4

[3] = U-937, Table 26, read-out: Off-target effect (IC50 cell-based assay)

human MLKL (full length), sequence (Q8NB16 whole entry): as the sequence (Q8NB16 whole entry) above

| Compound | Kd (human MLKL (full length)) | DC50 (endogenous MLKL in U937) | DC50 (endogenous MLKL in MDF) | IC50 ([1]; Table 26) | IC50 (U937 cells; [3]) | IC50 ([2]; Table 27) | IC50 ([1]; Table 23) | IC50 (U937 cells; U-937, Table 23, read-out: Off-target effect (IC50 cell-based assay)) | IC50 ([2]; Table 24) |
| --- | --- | --- | --- | --- | --- | --- | --- | --- | --- |
| Cc1ncsc1-c1ccc(CNC(=O)[C@@H]2C[C@@H](O)CN2C(=O)[C@@H](NC(=O)CN2CCC(n3cc(-c4cnc(N)c5c(-c6ccc(NS(=O)(=O)C(F)F)c(O[C@@H](C)c7ccc(F)cc7)c6)nn(C)c45)cn3)CC2)C(C)(C)C)cc1 [Compound 1016, (2S,4R)-1-[(2S)-2-{2-[4-(4-{4-amino-3-[4-(difluoromethanesulfonamido)-3-[(1S)-1-(4-fluorophenyl)ethoxy]phenyl]-1-methyl-1H-pyrazolo[4,3-c]pyridin-7-yl}-1H-pyrazol-1-yl)piperidin-1-yl]acetamido}-3,3-dimethylbutanoyl]-4-hydroxy-N-{[4-(4-methyl-1,3-thiazol-5-yl)phenyl]methyl}pyrrolidine-2-carboxamide] | – | – | – | < 1 µM | > 10 µM | < 1 µM | – | – | – |
| Cc1ncsc1-c1ccc(CNC(=O)[C@@H]2C[C@@H](O)CN2C(=O)[C@@H](NC(=O)COCCOCCOCCn2cc(-c3cnc(N)c4c(-c5ccc(NS(=O)(=O)C(F)F)c(O[C@@H](C)c6ccc(F)cc6)c5)nn(C)c34)cn2)C(C)(C)C)cc1 [Compound 1009, (2S,4R)-1-[(2S)-2-[2-(2-{2-[2-(4-{4-amino-3-[4-(difluoromethanesulfonamido)-3-[(1S)-1-(4-fluorophenyl)ethoxy]phenyl]-1-methyl-1H-pyrazolo[4,3-c]pyridin-7-yl}-1H-pyrazol-1-yl)ethoxy]ethoxy}ethoxy)acetamido]-3,3-dimethylbutanoyl]-4-hydroxy-N-{[4-(4-methyl-1,3-thiazol-5-yl)phenyl]methyl}pyrrolidine-2-carboxamide] | < 0.01 µM | 1 to 10 µM | – | < 1 µM | 1 to 10 µM | – | – | – | – |
| CCS(=O)(=O)Nc1ccc(-c2n[nH]c3c(-c4cnn(CCOCCOCC(=O)N[C@H](C(=O)N5C[C@H](O)C[C@H]5C(=O)NCc5ccc(-c6scnc6C)cc5)C(C)(C)C)c4)cnc(N)c23)cc1OCc1ccc(F)cc1 [Compound 1005, (2S,4R)-1-[(2S)-2-[2-(2-{2-[4-(4-amino-3-{4-ethanesulfonamido-3-[(4-fluorophenyl)methoxy]phenyl}-1H-pyrazolo[4,3-c]pyridin-7-yl)-1H-pyrazol-1-yl]ethoxy}ethoxy)acetamido]-3,3-dimethylbutanoyl]-4-hydroxy-N-{[4-(4-methyl-1,3-thiazol-5-yl)phenyl]methyl}pyrrolidine-2-carboxamide] | < 0.01 µM | 1 to 10 µM | – | 1 to 10 µM | > 10 µM | – | – | – | – |
| Cc1ncsc1-c1ccc(CNC(=O)[C@@H]2C[C@@H](O)CN2C(=O)[C@@H](NC(=O)CN2CCC(n3cc(-c4cnc(N)c5c(-c6ccc(NS(=O)(=O)C(F)F)c(O[C@@H](C)c7ccc(F)cc7)c6)nn(C)c45)cn3)C2)C(C)(C)C)cc1 (stereo partly drawn) [Compound 1011, (2S,4R)-1-[(2S)-2-{2-[3-(4-{4-amino-3-[4-(difluoromethanesulfonamido)-3-[(1S)-1-(4-fluorophenyl)ethoxy]phenyl]-1-methyl-1H-pyrazolo[4,3-c]pyridin-7-yl}-1H-pyrazol-1-yl)pyrrolidin-1-yl]acetamido}-3,3-dimethylbutanoyl]-4-hydroxy-N-{[4-(4-methyl-1,3-thiazol-5-yl)phenyl]methyl}pyrrolidine-2-carboxamide] | – | 1 to 10 µM | – | 1 to 10 µM | > 10 µM | – | – | – | – |
| C[C@H](Oc1cc(-c2nn(C)c3c(-c4cnn(C5CCN(C)C(C)(C)C5)c4)cnc(N)c23)ccc1NS(=O)(=O)C(F)F)c1ccc(F)cc1 (single isomer, unassigned) [Compound 155, N-(4-(4-amino-1-methyl-7-(1-((S*)-1,2,2-trimethylpiperidin-4-yl)-1H-pyrazol-4-yl)-1H-pyrazolo[4,3-c]pyridin-3-yl)-2-((S)-1-(4-fluorophenyl)ethoxy)phenyl)-1,1-difluoromethanesulfonamide] | – | – | – | – | – | – | < 0.01 µM | > 10 µM | < 1 µM |

The next lines start with results.

| Kd (human MLKL (full length)) | DC50 (endogenous MLKL in U937) | DC50 (endogenous MLKL in MDF) | Compound | IC50 ([1]; Table 26) | IC50 (U937 cells; [3]) | IC50 ([2]; Table 27) | IC50 ([1]; Table 23) | IC50 (U937 cells; U-937, Table 23, read-out: Off-target effect (IC50 cell-based assay)) | IC50 ([2]; Table 24) |
| --- | --- | --- | --- | --- | --- | --- | --- | --- | --- |
| < 0.01 µM | 1 to 10 µM | – | Cc1ncsc1-c1ccc(CNC(=O)[C@@H]2C[C@@H](O)CN2C(=O)[C@@H](NC(=O)CCN2CCC(n3cc(-c4cnc(N)c5c(-c6ccc(NS(=O)(=O)C(F)F)c(O[C@@H](C)c7ccc(F)cc7)c6)nn(C)c45)cn3)CC2)C(C)(C)C)cc1 [Compound 1017, (2S,4R)-1-[(2S)-2-{3-[4-(4-{4-amino-3-[4-(difluoromethanesulfonamido)-3-[(1S)-1-(4-fluorophenyl)ethoxy]phenyl]-1-methyl-1H-pyrazolo[4,3-c]pyridin-7-yl}-1H-pyrazol-1-yl)piperidin-1-yl]propanamido}-3,3-dimethylbutanoyl]-4-hydroxy-N-{[4-(4-methyl-1,3-thiazol-5-yl)phenyl]methyl}pyrrolidine-2-carboxamide] | 1 to 10 µM | > 10 µM | – | – | – | – |
| – | – | 1 to 10 µM | Cc1ncsc1-c1ccc(CNC(=O)[C@@H]2C[C@@H](O)CN2C(=O)[C@@H](NC(=O)CN2CCC(C#Cc3cnc(N)c4c(-c5ccc(NS(=O)(=O)C(F)F)c(O[C@@H](C)c6ccc(F)cc6)c5)nn(C)c34)CC2)C(C)(C)C)cc1 [Compound 1023, (2S,4R)-1-[(2S)-2-{2-[4-(2-{4-amino-3-[4-(difluoromethanesulfonamido)-3-[(1S)-1-(4-fluorophenyl)ethoxy]phenyl]-1-methyl-1H-pyrazolo[4,3-c]pyridin-7-yl}ethynyl)piperidin-1-yl]acetamido}-3,3-dimethylbutanoyl]-4-hydroxy-N-{[4-(4-methyl-1,3-thiazol-5-yl)phenyl]methyl} pyrrolidine-2-carboxamide] | < 1 µM | > 10 µM | – | – | – | – |
